Laboratory results as given in patent US8901294B2, “MRI contrast agent having gadolinium complex” (priority 2010, dated 2014).
Read-outs that look alike come from different tables or passages of the source. Marks after values point to notes of the source that are not given here. One block for each compound: values may come before it.

What was measured:
[1] = 25° C., μ = 0.10M (KCl); literature data; cited from earlier work
[2] = literature data, cited from earlier work; for LogK [GdL]/[Gd][L] (stability constant): 25° C., μ = 0.10M (KCl); for logKsel(Gd/Ca) (selectivity constant): Gd over Ca; for logKsel(Gd/Cu) (selectivity constant): Gd over Cu; for logKsel(Gd/Zn) (selectivity constant): Gd over Zn; for pGd: pM = −log[M]free at pH7.4, [M]total = 1 μmol/dm^3, [L]total = 1.1 μmol/dm^3
[3] = literature data, cited from earlier work; for LogK [ZnL]/[Zn][L] (stability constant): 25° C., μ = 0.10M (KCl); for pZn: pM = −log[M]free at pH7.4, [M]total = 1 μmol/dm^3, [L]total = 1.1 μmol/dm^3
[4] = literature data, cited from earlier work; for LogK [CuL]/[Cu][L] (stability constant): 25° C., μ = 0.10M (KCl); for pCu: pM = −log[M]free at pH7.4, [M]total = 1 μmol/dm^3, [L]total = 1.1 μmol/dm^3
[5] = 25° C., μ = 0.10M (KCl)
[6] = for logKsel(Gd/Ca) (selectivity constant): Gd over Ca; for logKsel(Gd/Ca) (selectivity constant) / logKsel(Gd/Cu) (selectivity constant) / logKsel(Gd/Zn) (selectivity constant): 25° C., μ = 0.10M (KCl); for logKsel(Gd/Cu) (selectivity constant): Gd over Cu; for logKsel(Gd/Zn) (selectivity constant): Gd over Zn; for logKGdL(pH7.4) (conditional stability constant): pH 7.4; for pGd: pM = −log[M]free at pH7.4, [M]total = 1 μmol/dm^3, [L]total = 1.1 μmol/dm^3
[7] = for logKCaL(pH7.4) (conditional stability constant): pH 7.4; for pCa: pM = −log[M]free at pH7.4, [M]total = 1 μmol/dm^3, [L]total = 1.1 μmol/dm^3
[8] = for logKZnL(pH7.4) (conditional stability constant): pH 7.4; for pZn: pM = −log[M]free at pH7.4, [M]total = 1 μmol/dm^3, [L]total = 1.1 μmol/dm^3
[9] = for logKCuL(PH7.4) (conditional stability constant): pH 7.4; for pCu: pM = −log[M]free at pH7.4, [M]total = 1 μmol/dm^3, [L]total = 1.1 μmol/dm^3
[10] = Relaxation times (T1, T2) and relaxivities (R1, R2) at 1.5 T; assay type: physicochemical; details: 1.5 T; mean value(±SD)
Protocol: T1 measurements were carried out using an inversion recovery method with a variable inversion time (TI) at 1.5 T. The MR images were acquired at 35 different TI values ranging from 50 to 1750 ms. T1 relaxation times were obtained from the nonlinear least-squares fit of the signal intensity measured at each T1 value. For T2 measurements the CPMG (Carr-Purcell-Meiboon-Gill) pulse sequence was adapted for multiple spin-echo measurements. Thirty-four images were acquired with 34 different echo time (TE) values. T2 relaxation times were obtained from the nonlinear least-squares fit of the mean pixel values for the multiple spin-echo measurements at each echo time. Relaxivities were then calculated as an inverse (R=1/s·mM) of relaxation time per mM. The determined relaxation times and relaxivities are finally transformed to a phantom map. The phantom images were obtained with the same concentration of Dotarem® and gadolinium complexes or comparative purposes. […] Table 2 summarizes the relaxation times and relaxivities for gadolinium complexes of the present invention along with other Gd-complexes.

[11] = literature data, cited from earlier work; for LogK [CaL]/[Ca][L] (stability constant): 25° C., μ = 0.10M (KCl)
[12] = Transmetalation kinetics: evolution of paramagnetic relaxation rate R1P(t)/R1P(0) in presence of ZnCl2; assay type: physicochemical; details: phosphate-buffered solution pH 7.4, 2.5 mmol/L Gd-complex and 2.5 mmol/L ZnCl2, 72 hours
From the text: […]. The relative value of R1^P at time t, R1^P(t)/R1^P(0), is therefore a good estimate of the extent of transmetalation. The evolution of R1^P(t)/R1^P(0) over time gives relevant information about the kinetics of the reaction, whereas the plateau value theoretically reached at t=∞ will reflect the thermodynamic aspect.
Accordingly, in order to investigate the transmetalation kinetics of the gadolinium complexes according to the present invention, the evolution of water proton relaxation rate (R1^P) of a phosphate-buffered solution (pH 7.4) containing 2.5 mmol/L of Gd-complex and 2.5 mmol/L of ZnCl2 with time was measured. To measure the change in the relaxation rate, 10 μL of a ZnCl2 solution (250 mmol/L) was added to 1 mL of a buffered solution of the Gd-complex and the mixture was vigorously stirred. The same experiment was performed with Dotarem®, Omniscan®, Multihance®, Primovist® and ethyl tranexamate (6) with zinc acetate for comparison. The measurement was made on a 3T whole body system (Magnetom Tim Trip; Simens, Germany) at room temperature.

[13] = reference values from ref. 8 or 9; cited from earlier work

SMILES: O=C(O)CN(CCN(CC(=O)O)CC(=O)O)CCN(CC(=O)O)C(COCc1ccccc1)C(=O)O (centres unmarked) [BOPTA]
LogK [H2L]/[HL][H] (protonation constant) [1]: 8.21
LogK [H3L]/[H2L][H] (protonation constant) [1]: 4.35
LogK [H4L]/[H3L][H] (protonation constant) [1]: 2.83
LogK [HL]/[L][H] (protonation constant) [1]: 10.71
ΣpKa (overall basicity) [1]: 26.10
LogK [GdL]/[Gd][L] (stability constant) [2]: 22.6
logKGdL(pH7.4) (conditional stability constant) [2]: 18.4
logKZnL(pH7.4) (conditional stability constant) [3]: 13.9
logKCuL(PH7.4) (conditional stability constant) [4]: 17.3

SMILES: O=C(O)CN1CCN(CC(=O)O)CCN(CC(=O)NCC2CCC(C(=O)O)CC2)CCN(CC(=O)O)CC1 (centres unmarked) [Compound 4a, DO3A-tranexamic acid]
LogK [H2L]/[HL][H] (protonation constant) [5]: 8.91
LogK [H3L]/[H2L][H] (protonation constant) [5]: 4.93
LogK [H4L]/[H3L][H] (protonation constant) [5]: 4.87
LogK [HL]/[L][H] (protonation constant) [5]: 11.73
logKsel(Gd/Ca) (selectivity constant) [6]: 10.56
logKsel(Gd/Cu) (selectivity constant) [6]: 7.02
logKsel(Gd/Zn) (selectivity constant) [6]: 7.87
logKGdL(pH7.4) (conditional stability constant) [6]: 18.73
pGd [6]: 17.73
logKCaL(pH7.4) (conditional stability constant) [7]: 8.16
pCa [7]: 7.16
logKZnL(pH7.4) (conditional stability constant) [8]: 10.86
pZn [8]: 9.86
logKCuL(PH7.4) (conditional stability constant) [9]: 11.70
pCu [9]: 10.70

SMILES: CCOC(=O)C1CCC(CNC(=O)CN2CCN(CC(=O)O)CCN(CC(=O)O)CCN(CC(=O)O)CC2)CC1 (centres unmarked) [Compound 4b, DO3A-tranexamic Acid Ester Derivative 1]
LogK [H2L]/[HL][H] (protonation constant) [5]: 9.35
LogK [H3L]/[H2L][H] (protonation constant) [5]: 5.24
LogK [HL]/[L][H] (protonation constant) [5]: 10.80
logKsel(Gd/Ca) (selectivity constant) [6]: 6.65
logKsel(Gd/Cu) (selectivity constant) [6]: 4.68
logKsel(Gd/Zn) (selectivity constant) [6]: 5.43
logKGdL(pH7.4) (conditional stability constant) [6]: 16.72
pGd [6]: 15.72
logKCaL(pH7.4) (conditional stability constant) [7]: 10.06
pCa [7]: 9.06
logKZnL(pH7.4) (conditional stability constant) [8]: 11.29
pZn [8]: 10.29
logKCuL(PH7.4) (conditional stability constant) [9]: 12.04
pCu [9]: 11.04

SMILES: C=CCOC(=O)C1CCC(CNC(=O)CN2CCN(CC(=O)O)CCN(CC(=O)O)CCN(CC(=O)O)CC2)CC1 (centres unmarked) [Compound 4c, DO3A-tranexamic Acid Ester Derivative 2]
LogK [H2L]/[HL][H] (protonation constant) [5]: 8.64
LogK [H3L]/[H2L][H] (protonation constant) [5]: 5.45
LogK [HL]/[L][H] (protonation constant) [5]: 10.62
logKsel(Gd/Ca) (selectivity constant) [6]: 6.55
logKsel(Gd/Cu) (selectivity constant) [6]: 2.21
logKsel(Gd/Zn) (selectivity constant) [6]: 3.91
logKGdL(pH7.4) (conditional stability constant) [6]: 16.99
pGd [6]: 15.99
logKCaL(pH7.4) (conditional stability constant) [7]: 10.44
pCa [7]: 9.43
logKZnL(pH7.4) (conditional stability constant) [8]: 13.08
pZn [8]: 12.08
logKCuL(PH7.4) (conditional stability constant) [9]: 14.77
pCu [9]: 13.77

SMILES: O.O=C([O-])CN1CCN(CC(=O)[O-])CCN(CC(=O)NCC2CCC(C(=O)O)CC2)CCN(CC(=O)[O-])CC1.[Gd+3] (centres unmarked) [Compound 5a]
R1 relaxivity [10]: 3.9 ± 0.04 mM⁻¹ s⁻¹
R2 relaxivity [10]: 4.0 ± 0.04 mM⁻¹ s⁻¹
T1 relaxation time [10]: 256.43 ± 2.63^a msec
T2 relaxation time [10]: 250.02 ± 2.50 ms

SMILES: O=C(O)CN1CCN(CC(=O)O)CCN(CC(=O)O)CCN(CC(=O)O)CC1 [DOTA]
LogK [H2L]/[HL][H] (protonation constant) [1]: 9.68
LogK [H3L]/[H2L][H] (protonation constant) [1]: 4.55
LogK [H4L]/[H3L][H] (protonation constant) [1]: 4.13
LogK [HL]/[L][H] (protonation constant) [1]: 12.09
ΣpKa (overall basicity) [1]: 30.45
LogK [GdL]/[Gd][L] (stability constant) [2]: 25.30
logKsel(Gd/Ca) (selectivity constant) [2]: 8.07
logKsel(Gd/Cu) (selectivity constant) [2]: 2.67
logKsel(Gd/Zn) (selectivity constant) [2]: 4.25
logKGdL(pH7.4) (conditional stability constant) [2]: 18.33
pGd [2]: 19.2
LogK [CaL]/[Ca][L] (stability constant) [11]: 17.23
logKCaL(pH7.4) (conditional stability constant) [11]: 10.26
LogK [ZnL]/[Zn][L] (stability constant) [3]: 21.05
logKZnL(pH7.4) (conditional stability constant) [3]: 14.08
pZn [3]: 15.19
LogK [CuL]/[Cu][L] (stability constant) [4]: 22.63
logKCuL(PH7.4) (conditional stability constant) [4]: 15.66
pCu [4]: 14.05

SMILES: O=C(O)CN(CCN(CC(=O)O)CC(=O)O)CCN(CC(=O)O)CC(=O)O [DTPA]
LogK [H2L]/[HL][H] (protonation constant) [1]: 8.60
LogK [H3L]/[H2L][H] (protonation constant) [1]: 4.28
LogK [H4L]/[H3L][H] (protonation constant) [1]: 2.64
LogK [HL]/[L][H] (protonation constant) [1]: 10.49
ΣpKa (overall basicity) [1]: 26.01
LogK [GdL]/[Gd][L] (stability constant) [2]: 22.46
logKsel(Gd/Ca) (selectivity constant) [2]: 11.71
logKsel(Gd/Cu) (selectivity constant) [2]: 1.08
logKsel(Gd/Zn) (selectivity constant) [2]: 3.76
logKGdL(pH7.4) (conditional stability constant) [2]: 18.14
pGd [2]: 17.14
LogK [CaL]/[Ca][L] (stability constant) [11]: 10.75
logKCaL(pH7.4) (conditional stability constant) [11]: 6.43
pCa ([11]; pM = −log[M]free at pH7.4, [M]total = 1 μmol/dm^3, [L]total = 1.1 μmol/dm^3): 5.45
LogK [ZnL]/[Zn][L] (stability constant) [3]: 18.70
logKZnL(pH7.4) (conditional stability constant) [3]: 14.38
pZn [3]: 13.39
LogK [CuL]/[Cu][L] (stability constant) [4]: 21.38
logKCuL(PH7.4) (conditional stability constant) [4]: 17.06
pCu [4]: 16.06

R1 relaxivity [10]: 3.7 ± 0.04 mM⁻¹ s⁻¹
R2 relaxivity [10]: 4.1 ± 0.21 mM⁻¹ s⁻¹
T1 relaxation time [10]: 270.30 ± 2.92 ms
T2 relaxation time [10]: 244.54 ± 12.5 ms
SMILES: CNC[C@H](O)[C@@H](O)[C@H](O)[C@H](O)CO.O=C([O-])CN1CCN(CC(=O)[O-])CCN(CC(=O)O)CCN(CC(=O)[O-])CC1.[Gd+3] [Dotarem]

SMILES: CCOc1ccc(C[C@@H](CN(CCN(CC(=O)O)CC(=O)O)CC(=O)O)N(CC(=O)O)CC(=O)O)cc1 [EOB-DTPA]
LogK [H2L]/[HL][H] (protonation constant) [1]: 8.63
LogK [H3L]/[H2L][H] (protonation constant) [1]: 4.26
LogK [H4L]/[H3L][H] (protonation constant) [1]: 2.73
LogK [HL]/[L][H] (protonation constant) [1]: 10.91
ΣpKa (overall basicity) [1]: 26.53
LogK [GdL]/[Gd][L] (stability constant) [2]: 23.46
logKGdL(pH7.4) (conditional stability constant) [2]: 18.7

pattern of evolution of the paramagnetic relaxation rate R1P(t)/R1P(0) (in words) [12]: drastic decrease in the rate
SMILES: CNC[C@H](O)[C@@H](O)[C@H](O)[C@H](O)CO.CNC[C@H](O)[C@@H](O)[C@H](O)[C@H](O)CO.O=C([O-])CN(CCN(CC(=O)[O-])CC(=O)O)CCN(CC(=O)O)C(COCc1ccccc1)C(=O)[O-].[Gd+3] (centres unmarked) [Multihance]
R1 relaxivity [13]: 4.0 ± 0.2 mM⁻¹ s⁻¹
R2 relaxivity [13]: 4.3 ± 0.5 mM⁻¹ s⁻¹
T1 relaxation time [13]: 250.62 ± 12.5 ms
T2 relaxation time [13]: 235 ± 27.4 ms

pattern of evolution of the paramagnetic relaxation rate R1P(t)/R1P(0) (in words) [12]: drastic decrease in the rate
SMILES: CCOc1ccc(CC(CN(CCN(CC(=O)[O-])CC(=O)[O-])CC(=O)[O-])N(CC(=O)[O-])CC(=O)[O-])cc1.[Gd+3].[Na+].[Na+] (centres unmarked) [Primovist]
R1 relaxivity [13]: 4.7 ± 0.2 mM⁻¹ s⁻¹
R2 relaxivity [13]: 5.1 ± 0.6 mM⁻¹ s⁻¹
T1 relaxation time [13]: 213.15 ± 9.07 ms
T2 relaxation time [13]: 198.83 ± 23.4 ms
